Here are results for one molecule from patent publication US20100105688A1, “PHARMACEUTICAL COMPOSITIONS COMPRISING 3,5-DIAMINO-6-(2,3-DICHLOPHENYL)-1,2,4-TRIAZINE OR R(-)-2,4-DIAMINO-5-(2,3-DICHLOROPHENYL)-6-FLUOROMETHYL PYRIMIDINE AND AN NK1” (GLAXO GROUP LIMITED, priority 2007, published 2010).

Read-outs that look alike come from different tables or passages of the source.

Data set [1] concerns Male CD rats. In words: Rat MEST model (seizure threshold, CC50). Type of data set: in vivo. The method, then:
This work was conducted in compliance with the Home Office Guidance on the operation of the Animals (Scientific Procedures) Act 1986 and GlaxoSmithKline ethical standards. Male CD rats (100-145 g) were supplied by Charles River, UK. Animals were group housed (6 animal per cage) with free access to food (Standard rodent chow; Harlan, UK) and water under a 12 h light/dark cycle (lights on at 0700 h). A period of at least one week between arrival at GSK and the study was allowed in all cases.
Animals were administered a test compound at the appropriate dose, route and pre-treatment time and returned to their home cage. Testing occurred in a separate room from that used for housing. Testing involved determining the threshold for tonic hindlimb extensor seizures using a Hugo Sachs Electronik stimulator which delivers a constant current of 0.3 second duration, 50 Hz, sinewave form, fully adjustable between 1 and 300 mA. Stimuli were delivered via corneal electrodes (Stean T O, Atkins A R, Heidbreder C A, Quinn L P, Trail B K, Upton N. (2005) Br J. Pharmacol. 144(5):628-35). Seizure threshold was determined using the ‘up and down’ method of Kimball et al. (1957)(Kimball A W, Burnett W T Jr, Doherty D G. (1957) Radiat Res. 7(1):1-12). The first animal tested in each group was stimulated with a current that might be expected to be close to the threshold for induction of a seizure. If a tonic seizure was not induced, then next animal in the group received a stimulus 5 mA higher. If a tonic seizure was induced, then the next animal received a stimulus 5 mA lower. This is repeated for all animals within the control (vehicle) group. In the case of groups treated with a sodium channel blocker steps of 10 to 30 mA were used.
(§1) All doses were calculated as base. ENa9 and ENa13 were dosed via the subcutaneous (s.c.) route at 1 ml/kg in a 2% v/v DMSO/saline vehicle 30 minutes prior to test. ENa7 and ENa14 were dosed orally (p.o.) in a 1% w/v methylcellulose/water vehicle at 2 ml/kg, 60 minutes before test. Compound ENK6 was dosed with via the intraperitoneal (i.p.) route 60 minutes before the test or via the s.c. route 15 minutes before test. In both cases ENK6 was dissolved in saline.
Induction of seizure is measured as an all-or-nothing effect scored as either present (+) or absent (0) for each animal. The data for each treatment group were recorded as the number of +'s and 0's at each current level employed and this information was then used to calculate the CC50 value (current required for 50% of animals to show seizure behaviour)+standard error of the mean according to the method of Kimball et al. (1957). Drug effects were calculated as the % change in CC50. Significant differences between drug-treated animals and appropriate vehicle treated groups were assessed according to the methods of Litchfield and Wilcoxon (1949). The statistical significance of differences between sodium channel blocker alone or in combination with ENK6 was assessed using a Student's t test.

Data set [2] can be described thus: Blood and brain concentrations in satellite animals of the MEST study. Type of data set: in vivo, rat. To be noted: satellite rats; for concentration at 60 min: rat, po, n = 1. Here is the method: Satellite animals (n=3/group) received the same drugs or combinations of drugs as the test groups, and were culled at the appropriate time after dosing. Blood and brain samples were taken for analysis of the drug concentrations in these compartments.
as §1

The mark [3] stands for this setting: ENK6 10 mg/kg s.c. + ENa7 1 mg/kg p.o., n = 2-3.
[4] abbreviates: ENK6 10 mg/kg s.c. + ENa7 3 mg/kg p.o., n = 2-3.
[5] abbreviates: ENK6 30 mg/kg s.c. + ENa7 1 mg/kg p.o., n = 2.
The mark [6] stands for this setting: ENK6 30 mg/kg s.c. + ENa7 3 mg/kg p.o., n = 2.

As to `Nc1nnc(-c2cccc(Cl)c2Cl)c(N)n1` [ENa7, 3,5-diamino-6-(2,3-dichlorophenyl)-1,2,4-triazine, reference compound], the “increase in CC50 (mA)” value came out at 61% in data set [1] (sodium channel blocker 1 mg/kg p.o. in the presence of ENK6 10 mg/kg s.c. (first experiment)), 145% in data set [1] (sodium channel blocker 1 mg/kg p.o. in the presence of ENK6 30 mg/kg s.c.) and 233% in data set [1] (sodium channel blocker 3 mg/kg p.o. in the presence of ENK6 30 mg/kg s.c. (second experiment)). In addition, the “effect on seizure threshold” value in data set [1] (sodium channel blocker alone, 1 mg/kg p.o., 60 minutes before the test) is reported as “little or no increase in seizure threshold”. Also, the “increase in seizure threshold” value in data set [1] (sodium channel blocker alone, 3 mg/kg p.o., 60 minutes before the test, two independent experiments) is given as 128-205%. The concentration at 60 min in data set [2] (blood, 1 mg/kg, ENK6 veh + ENa7 1 mg/kg p.o. (Table 3), read-out: Blood concentration) was 311 ng/mL; in data set [2] (blood, 1 mg/kg, ENK6 veh + ENa7 1 mg/kg p.o. (Table 4), read-out: Blood concentration), 352 ng/mL; in data set [2] (blood, 3 mg/kg, ENK6 veh + ENa7 3 mg/kg p.o. (Table 3), read-out: Blood concentration), 1180 ng/mL; in data set [2] (blood, 3 mg/kg, ENK6 veh + ENa7 3 mg/kg p.o. (Table 4), read-out: Blood concentration) it was 1350 ng/mL; in data set [2] (brain, 1 mg/kg, ENK6 veh + ENa7 1 mg/kg p.o. (Table 3), read-out: Brain concentration), 517 ng/g; in data set [2] (brain, 1 mg/kg, ENK6 veh + ENa7 1 mg/kg p.o. (Table 4), read-out: Brain concentration), 588 ng/g. Also, the concentration at 60 min is 2830 ng/g in data set [2] (brain, 3 mg/kg, ENK6 veh + ENa7 3 mg/kg p.o. (Table 3), read-out: Brain concentration) and 2190 ng/g in data set [2] (brain, 3 mg/kg, ENK6 veh + ENa7 3 mg/kg p.o. (Table 4), read-out: Brain concentration). Further, the Blood concentration is on record as 581 ng/mL in data set [2] (setting [3]), 1603 ng/mL in data set [2] (setting [4]), 461 ng/mL in data set [2] (setting [5]) and 1404 ng/mL in data set [2] (setting [6]). Further, the Brain concentration in data set [2] (setting [3]) is reported as 1125 ng/g; in data set [2] (setting [4]) it was 2855 ng/g; in data set [2] (setting [5]) it was 752 ng/g; in data set [2] (setting [6]), 2096 ng/g.
